Measurements taken from article PMC11207729, “Unveiling Anticancer Potential of COX-2 and 5-LOX Inhibitors: Cytotoxicity, Radiosensitization Potential and Antimigratory Activity against Colorectal and Pancreatic Carcinoma” (Pharmaceutics, 2024).

Test system: HCT 116 cells
Experiment: MTT cytotoxicity assay, HCT 116
Type: cell-based, human
Conditions: Homo sapiens, HCT-116; MTT, 72 h after treatment, mean ± SEM
Procedure: (§1) SW620 cells were cultured in Dulbecco’s Modified Eagle’s medium (DMEM, Sigma-Aldrich Chemie GmbH, Steinheim, Germany) and supplemented in the same manner as the previously mentioned cell lines. Cells were grown in cell culture flasks T25 (Sarstedt AG & Co., Nümbrecht, Germany) at appropriate cell densities in the culture medium prior to exposure to treatments. Stock solutions of each compound, prepared in DMSO, were diluted in the culture medium to obtain the appropriate final concentrations.
(§2) The viability of the control and cells treated with the tested compounds was determined by MTT assay. Cells were seeded in 96-well plates at a density of 2000 cells/well, allowed to attach overnight, and then treated with rising concentrations of testing compounds. The ability of viable cells to reduce 3-(4,5-dimethylthiazol-2-yl)-2,5-diphenyltetrazolium bromide into blue-purple formazan crystals, was measured 72 h after the treatments. Namely, l mg/mL of MTT reagent (Sigma-Aldrich Chemie GmbH, Steinheim, Germany) was added to each well and incubated for an additional 4 h. Finally, upon removal of the medium containing MTT, 200 µL of DMSO was added to each well.

| SMILES | IC50 [µM] |
| --- | --- |
| CC(=O)N(O)C(C)c1ccc(CC(C)C)cc1 (stereo not drawn) [Compound 11] | 82 ± 2.34 |
| COc1ccc2cc(C(C)N(O)C(C)=O)ccc2c1 (stereo not drawn) [Compound 12] | > 100 |
| CC(C)(C)c1cc(/C=C2\SC(=S)N(N)C2=O)cc(C(C)(C)C)c1O [Compound 13] | 2.21 ± 0.12 |
| O=C(O)Cc1ccccc1Nc1c(Cl)cccc1Cl [Diclofenac, reference compound] | 79.1 ± 3.68 |
| CC(C(=O)O)c1ccc(-c2ccccc2)c(F)c1 (stereo not drawn) [Flurbiprofen, reference compound] | > 100 |
| COc1ccc2c(c1)c(CC(=O)O)c(C)n2C(=O)c1ccc(Cl)cc1 [Indomethacin, reference compound] | 60.4 ± 4.27 |
| CC(c1cc2ccccc2s1)N(O)C(N)=O (stereo not drawn) [Zileuton, reference compound] | 44.9 ± 3.48 |

Same assay, conditions: MRC-5 / HCT 116, in brackets

| SMILES | Selectivity index (IC50 normal cell line/IC50 cancer cell lines), HCT 116 |
| --- | --- |
| CC(=O)N(O)C(C)c1ccc(CC(C)C)cc1 (stereo not drawn) [Compound 11] | 0.70 |
| CC(C)(C)c1cc(/C=C2\SC(=S)N(N)C2=O)cc(C(C)(C)C)c1O [Compound 13] | 25.84 |
| COc1ccc2c(c1)c(CC(=O)O)c(C)n2C(=O)c1ccc(Cl)cc1 [Indomethacin, reference compound] | 1.32 |
| CC(c1cc2ccccc2s1)N(O)C(N)=O (stereo not drawn) [Zileuton, reference compound] | 2.13 |

Test system: BxPC-3 cells
Experiment: MTT cytotoxicity assay, BxPC-3
Type: cell-based, human
Conditions: Homo sapiens, BXPC-3, 72 h, MTT, 72 h after treatment, mean ± SEM
Procedure: as §1, §2

| SMILES | IC50 [µM] |
| --- | --- |
| CC(=O)N(O)C(C)c1ccc(CC(C)C)cc1 (stereo not drawn) [Compound 11] | 63 ± 3.8 |
| COc1ccc2cc(C(C)N(O)C(C)=O)ccc2c1 (stereo not drawn) [Compound 12] | > 100 |
| CC(C)(C)c1cc(/C=C2\SC(=S)N(N)C2=O)cc(C(C)(C)C)c1O [Compound 13] | 1.8 ± 0.1 |
| O=C(O)Cc1ccccc1Nc1c(Cl)cccc1Cl [Diclofenac, reference compound] | 57.2 ± 3.03 |
| CC(C(=O)O)c1ccc(-c2ccccc2)c(F)c1 (stereo not drawn) [Flurbiprofen, reference compound] | > 100 |
| COc1ccc2c(c1)c(CC(=O)O)c(C)n2C(=O)c1ccc(Cl)cc1 [Indomethacin, reference compound] | 85.9 ± 2.58 |
| CC(c1cc2ccccc2s1)N(O)C(N)=O (stereo not drawn) [Zileuton, reference compound] | 74.9 ± 4.1 |

Same assay, conditions: MRC-5 / BxPC-3, in brackets

| SMILES | Selectivity index (IC50 normal cell line/IC50 cancer cell lines), BxPC-3 |
| --- | --- |
| CC(=O)N(O)C(C)c1ccc(CC(C)C)cc1 (stereo not drawn) [Compound 11] | 0.91 |
| COc1ccc2cc(C(C)N(O)C(C)=O)ccc2c1 (stereo not drawn) [Compound 12] | 0.83 |
| CC(C)(C)c1cc(/C=C2\SC(=S)N(N)C2=O)cc(C(C)(C)C)c1O [Compound 13] | 31.72 |
| COc1ccc2c(c1)c(CC(=O)O)c(C)n2C(=O)c1ccc(Cl)cc1 [Indomethacin, reference compound] | 0.93 |
| CC(c1cc2ccccc2s1)N(O)C(N)=O (stereo not drawn) [Zileuton, reference compound] | 1.28 |

Same assay, conditions: MTT, 72 h after treatment, mean ± SEM

| SMILES | IC50 [µM] |
| --- | --- |
| COc1ccc2cc(C(C)N(O)C(C)=O)ccc2c1 (stereo not drawn) [Compound 12] | 76.7 ± 5.54 |

Test system: HT-29 cells
Experiment: MTT cytotoxicity assay, HT-29
Type: cell-based, human
Conditions: Homo sapiens, HT-29; MTT, 72 h after treatment, mean ± SEM
Procedure: as §1, §2

| SMILES | IC50 [µM] |
| --- | --- |
| CC(=O)N(O)C(C)c1ccc(CC(C)C)cc1 (stereo not drawn) [Compound 11] | 84.1 ± 3.43 |
| COc1ccc2cc(C(C)N(O)C(C)=O)ccc2c1 (stereo not drawn) [Compound 12] | > 100 |
| CC(C)(C)c1cc(/C=C2\SC(=S)N(N)C2=O)cc(C(C)(C)C)c1O [Compound 13] | 12.4 ± 1.95 |
| O=C(O)Cc1ccccc1Nc1c(Cl)cccc1Cl [Diclofenac, reference compound] | 75 ± 3.98 |
| CC(C(=O)O)c1ccc(-c2ccccc2)c(F)c1 (stereo not drawn) [Flurbiprofen, reference compound] | > 100 |
| COc1ccc2c(c1)c(CC(=O)O)c(C)n2C(=O)c1ccc(Cl)cc1 [Indomethacin, reference compound] | 89.5 ± 4.45 |
| CC(c1cc2ccccc2s1)N(O)C(N)=O (stereo not drawn) [Zileuton, reference compound] | 78.5 ± 2.28 |

Same assay, conditions: MRC-5 / HT-29, in brackets

| SMILES | Selectivity index (IC50 normal cell line/IC50 cancer cell lines), HT-29 |
| --- | --- |
| CC(=O)N(O)C(C)c1ccc(CC(C)C)cc1 (stereo not drawn) [Compound 11] | 0.68 |
| CC(C)(C)c1cc(/C=C2\SC(=S)N(N)C2=O)cc(C(C)(C)C)c1O [Compound 13] | 4.60 |
| COc1ccc2c(c1)c(CC(=O)O)c(C)n2C(=O)c1ccc(Cl)cc1 [Indomethacin, reference compound] | 0.89 |
| CC(c1cc2ccccc2s1)N(O)C(N)=O (stereo not drawn) [Zileuton, reference compound] | 1.22 |

Test system: MRC-5 cells
Experiment: MTT cytotoxicity assay, MRC-5 normal fibroblasts
Type: cell-based, human
Conditions: Homo sapiens, MRC5, 72 h, MTT, 72 h after treatment, mean ± SEM; healthy cell line

| SMILES | IC50 [µM] |
| --- | --- |
| CC(=O)N(O)C(C)c1ccc(CC(C)C)cc1 (stereo not drawn) [Compound 11] | 57.1 ± 3.8 |
| COc1ccc2cc(C(C)N(O)C(C)=O)ccc2c1 (stereo not drawn) [Compound 12] | > 100 |
| CC(C)(C)c1cc(/C=C2\SC(=S)N(N)C2=O)cc(C(C)(C)C)c1O [Compound 13] | 57.1 ± 3.8 |
| CC(C(=O)O)c1ccc(-c2ccccc2)c(F)c1 (stereo not drawn) [Flurbiprofen, reference compound] | > 100 |
| COc1ccc2c(c1)c(CC(=O)O)c(C)n2C(=O)c1ccc(Cl)cc1 [Indomethacin, reference compound] | 79.8 ± 5.9 |
| CC(c1cc2ccccc2s1)N(O)C(N)=O (stereo not drawn) [Zileuton, reference compound] | 95.74 ± 0.94 |

Same assay, conditions: MRC-5 / MRC-5 (reference value), in brackets

| SMILES | Selectivity index, MRC-5 |
| --- | --- |
| CC(=O)N(O)C(C)c1ccc(CC(C)C)cc1 (stereo not drawn) [Compound 11] | 1 |
| COc1ccc2cc(C(C)N(O)C(C)=O)ccc2c1 (stereo not drawn) [Compound 12] | 1 |
| CC(C)(C)c1cc(/C=C2\SC(=S)N(N)C2=O)cc(C(C)(C)C)c1O [Compound 13] | 1 |
| COc1ccc2c(c1)c(CC(=O)O)c(C)n2C(=O)c1ccc(Cl)cc1 [Indomethacin, reference compound] | 1 |
| CC(c1cc2ccccc2s1)N(O)C(N)=O (stereo not drawn) [Zileuton, reference compound] | 1 |

Same assay, conditions: MTT, 72 h after treatment, mean ± SEM; healthy cell line

| SMILES | IC50 [µM] |
| --- | --- |
| COc1ccc2cc(C(C)N(O)C(C)=O)ccc2c1 (stereo not drawn) [Compound 12] | 63.6 ± 9.04 |

Test system: not listed separately
Experiment: in vivo
Conditions: in vivo
Procedure: Wild-type (AB) zebrafish embryos, kindly provided by Dr. Ana Cvejić (Wellcome Trust Sanger Institute, Cambridge, UK), were raised to adult stage in a temperature- and light-controlled zebrafish facility at 28 °C and a standard 14:10 h light–dark photoperiod. Fish were fed with commercial dry food (SDS200 and SDS300 granular food; Special Diet Services, Essex; UK and TetraMinTM flakes; Tetra Melle, Germany) twice a day, and with Artemia nauplii daily.
Embryos produced by pairwise mating were washed to remove debris, distributed at 10 per well into 24-well plates containing 1 mL of E3 medium (5 mM NaCl, 0.17 mM KCl, 0.33 mM CaCl2 and 0.33 mM MgSO4 in distilled water) and maintained at 28 °C. […] Dead embryos were recorded and discarded every 24 h. […] Experiments were performed in triplicate using 30 embryos for each concentration. At 120 hpf, embryos were anesthetized by the addition of 0.1% (w/v) tricaine solution (Sigma-Aldrich, St. Louis, MO, USA), photographed, and killed by freezing at −20 °C for ≥24 h.

| SMILES | LC50 [µM] |
| --- | --- |
| CC(c1cc2ccccc2s1)N(O)C(N)=O (stereo not drawn) [Zileuton, reference compound] | 4.41 |

Test system: SW620 cells
Experiment: not given
Conditions: 10 nM, after 24 h; cited from earlier work

| SMILES | antimigratory effects on SW620 cell line |
| --- | --- |
| CC(C(=O)O)c1ccc(-c2ccccc2)c(F)c1 (stereo not drawn) [Flurbiprofen, reference compound] | significant antimigratory effects |

Same assay, conditions: 30 μM, 48 h; cited from earlier work

| SMILES | antimigratory properties in SW620 cells |
| --- | --- |
| Cc1ccc(-c2cc(C(F)(F)F)nn2-c2ccc(S(N)(=O)=O)cc2)cc1 [celecoxib] | comparable efficacy to compounds 1, 2, 3 and 5 |

Same assay, conditions: 400 μM, after 36 h; cited from earlier work

| SMILES | migratory ability of SW620 cells |
| --- | --- |
| COc1ccc2c(c1)c(CC(=O)O)c(C)n2C(=O)c1ccc(Cl)cc1 [Indomethacin, reference compound] | significantly decreased the migratory ability |
